Reference: US8772500B2, “TRPV3 modulators” (AbbVie Inc., priority 2011, dated 2014)

Assays:
[1] = biological target: T1, human TRPV3 (Homo sapiens, UniProt Q8NET8); assay: In vitro antagonism of recombinant human TRPV3 activation (FLIPR Tetra calcium assay, 2-APB as agonist); format: cell-based; settings: HEK293 cells stably expressing human TRPV3; 2-APB 80 μM; range class; read-out: IC50 (reported range)
T1 construct: expressed in transfected cells
T1 sequence (Q8NET8 1-790): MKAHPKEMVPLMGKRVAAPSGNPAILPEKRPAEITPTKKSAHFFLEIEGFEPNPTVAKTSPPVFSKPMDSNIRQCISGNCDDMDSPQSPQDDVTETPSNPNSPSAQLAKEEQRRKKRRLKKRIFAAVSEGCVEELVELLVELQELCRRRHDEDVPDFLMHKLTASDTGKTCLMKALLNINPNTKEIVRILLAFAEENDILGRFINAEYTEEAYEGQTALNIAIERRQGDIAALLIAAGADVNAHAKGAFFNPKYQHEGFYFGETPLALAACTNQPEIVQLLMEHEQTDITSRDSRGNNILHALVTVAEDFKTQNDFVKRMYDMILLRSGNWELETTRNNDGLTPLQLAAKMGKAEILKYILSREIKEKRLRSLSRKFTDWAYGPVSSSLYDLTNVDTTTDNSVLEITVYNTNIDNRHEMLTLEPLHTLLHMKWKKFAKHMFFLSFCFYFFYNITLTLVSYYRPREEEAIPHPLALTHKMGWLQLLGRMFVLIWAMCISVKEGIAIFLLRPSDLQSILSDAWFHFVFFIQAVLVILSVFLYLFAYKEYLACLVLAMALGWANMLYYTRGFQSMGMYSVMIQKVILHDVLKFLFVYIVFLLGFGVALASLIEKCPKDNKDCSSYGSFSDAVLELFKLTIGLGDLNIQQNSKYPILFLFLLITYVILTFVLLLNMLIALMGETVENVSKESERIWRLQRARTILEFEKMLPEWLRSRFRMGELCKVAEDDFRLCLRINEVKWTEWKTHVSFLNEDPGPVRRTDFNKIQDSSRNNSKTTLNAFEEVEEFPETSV
Outline: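 HEK293 cells stably expressing human TRPV3, loaded with Calcium-4 dye for 90-120 min; compound added 3 min before 2-APB at 80 μM (its EC80). Fluorescence (max minus min) over 10 min expressed as % of maximal 2-APB response without antagonist; IC50 mostly averaged from n≧2 runs.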

[2] = In vitro rat microsomal stability assay; format: in vitro ADME, rat (Sprague-Dawley); settings: Sprague-Dawley, rat, 0.5 h, 0.5 μM, pH 7.4
Outline: (§1)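 Rat (Sprague-Dawley) and human liver microsomes were incubated with test compound and NADPH at 37 °C. Time-zero samples also received NADPH.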

[3] = In vitro human microsomal stability assay; format: in vitro ADME; settings: human, 0.5 h, 0.5 μM, pH 7.4
Outline: as §1

Row | IC50 [1] | RAT MICROSOMAL STABILITY (% REMAINING AFTER 30 MINUTES) [2] | HUMAN MICROSOMAL STABILITY (% REMAINING AFTER 30 MINUTES) [3] | SMILES
1 | 50 to 500 nM | 65% | 42% | OC1CC(c2cccc(OC(F)(F)F)c2)(C(O)c2ccccn2)C1 [Example 273, trans-3-[(S)-hydroxy(pyridin-2-yl)methyl]-3-[3-(trifluoromethoxy)phenyl]-cyclobutanol]
2 | 5100 to 20000 nM | 5.7% | 67% | Cn1c(C2(C(O)c3ccccn3)CCC2)nc2ccccc21 (stereo not drawn) [Example 275, [1-(1-methyl-1H-benzimidazol-2-yl)cyclobutyl](pyridin-2-yl)methanol]
3 | 50 to 500 nM | 73% | 72% | OC1CC(c2ccc(F)c(Cl)c2)([C@H](O)c2ccccn2)C1 (stereo partly drawn) [Example 276, 3-(3-chloro-4-fluorophenyl)-3-[(S)-hydroxy(pyridin-2-yl)methyl]-cyclobutanol]
4 | 1100 to 5000 nM | >85% | >85% | O=C1CC(c2cc(C(F)(F)F)ccn2)([C@H](O)c2ccccn2)C1 [Example 277, 3-[(S)-hydroxy(pyridin-2-yl)methyl]-3-[4-(trifluoromethyl)pyridin-2-yl]-cyclobutanone]
5 | 5100 to 20000 nM | >85% | 83% | O=C1CC(c2cc(C(F)(F)F)ccn2)([C@@H](O)c2ccccn2)C1 [Example 278, 3-[(R)-hydroxy(pyridin-2-yl)methyl]-3-[4-(trifluoromethyl)pyridin-2-yl]-cyclobutanone]
6 | 5100 to 20000 nM | <0.01% | <0.01% | CC(=O)O[C@H](c1ccccn1)C1(c2ccc(OC(F)(F)F)cc2)CCC1 [Example 288, (S)-pyridin-2-yl{1-[4-(trifluoromethoxy)phenyl]cyclobutyl}methyl acetate]
7 | 501 to 1000 nM | 5.4% | 19% | OC(c1ccccn1)C1(c2nc3ccc(Cl)cc3s2)CCC1 (stereo not drawn) [Example 292, [1-(6-chloro-1,3-benzothiazol-2-yl)cyclobutyl](pyridin-2-yl)methanol]
8 | 1100 to 5000 nM | 0.020% | 35% | OC(c1ccccn1)C1(c2nc3ccc(F)cc3s2)CCC1 (stereo not drawn) [Example 300, [1-(6-fluoro-1,3-benzothiazol-2-yl)cyclobutyl](pyridin-2-yl)methanol]
9 | 5100 to 20000 nM | 22% | 57% | OC(c1ccccn1)C1(c2nc3ccc(Cl)cc3o2)CCC1 (stereo not drawn) [Example 301, [1-(6-chloro-1,3-benzoxazol-2-yl)cyclobutyl](pyridin-2-yl)methanol]

The remaining lines, values behind:

Row | SMILES | IC50 [1] | RAT MICROSOMAL STABILITY (% REMAINING AFTER 30 MINUTES) [2] | HUMAN MICROSOMAL STABILITY (% REMAINING AFTER 30 MINUTES) [3]
10 | OC1CC(c2cccc(OC(F)(F)F)c2)(C(O)c2ccccn2)C1 [Example 272, cis-3-[(S)-hydroxy(pyridin-2-yl)methyl]-3-[3-(trifluoromethoxy)phenyl]-cyclobutanol] | 50 to 500 nM | 48% | 54%
11 | OC(c1ccccn1)C1(C2CCC(F)(F)CC2)CCC1 (stereo not drawn) [Example 274, [1-(4,4-difluorocyclohexyl)cyclobutyl](pyridin-2-yl)methanol] | 1100 to 5000 nM | 10% | 55%
12 | CC(C)(C)OC(=O)N1CCC(C2(C(O)c3ccccn3)CCC2)CC1 (stereo not drawn) [Example 279, tert-butyl 4-{1-[hydroxy(pyridin-2-yl)methyl]cyclobutyl}piperidine-1-carboxylate] | 5100 to 20000 nM | <0.01% | 22%
13 | OC(c1ccccn1)C1(C2CCC(C(F)(F)F)CC2)CCC1 (stereo not drawn) [Example 280, pyridin-2-yl{1-[4-(trifluoromethyl)cyclohexyl]cyclobutyl}methanol] | 1100 to 5000 nM | <0.01% | 9.0%
14 | OC(c1ccccn1)C1(C2CCCOC2)CCC1 (stereo not drawn) [Example 281, pyridin-2-yl[1-(tetrahydro-2H-pyran-3-yl)cyclobutyl]methanol] | 5100 to 20000 nM | 0.054% | >85%
15 | OC1CC(c2cc(C(F)(F)F)ccn2)(C(O)c2ccccn2)C1 [Example 282, cis-3-[(S)-hydroxy(pyridin-2-yl)methyl]-3-[4-(trifluoromethyl)pyridin-2-yl]-cyclobutanol] | 501 to 1000 nM | >85% | >85%
16 | OC1CC(c2cc(C(F)(F)F)ccn2)(C(O)c2ccccn2)C1 [Example 283, trans-3-[(S)-hydroxy(pyridin-2-yl)methyl]-3-[4-(trifluoromethyl)pyridin-2-yl]cyclobutanol] | 501 to 1000 nM | >85% | >85%
17 | Cc1cc(C(F)(F)F)cc(C2([C@@H](O)c3ccccn3)CC(=O)C2)n1 [Example 291, 3-[(R)-hydroxy(pyridin-2-yl)methyl]-3-[6-methyl-4-(trifluoromethyl)pyridin-2-yl]cyclobutanone] | 5100 to 20000 nM | 53% | >85%
18 | OC1CC(c2cncc(C(F)(F)F)c2)(C(O)c2ccccn2)C1 [Example 303, cis-3-[(S)-hydroxy(pyridin-2-yl)methyl]-3-[5-(trifluoromethyl)pyridin-3-yl]-cyclobutanol] | 501 to 1000 nM | 32% | 80%
19 | OC1CC(c2cncc(C(F)(F)F)c2)(C(O)c2ccccn2)C1 [Example 304, trans-3-[(S)-hydroxy(pyridin-2-yl)methyl]-3-[5-(trifluoromethyl)pyridin-3-yl]cyclobutanol] | 50 to 500 nM | 44% | >85%
20 | OC1CC(c2ccnc(C(F)(F)F)c2)(C(O)c2ccccn2)C1 [Example 305, cis-3-[(S)-hydroxy(pyridin-2-yl)methyl]-3-[2-(trifluoromethyl)pyridin-4-yl]-cyclobutanol] | 50 to 500 nM | 49% | 63%
21 | OC1CC(c2ccnc(C(F)(F)F)c2)(C(O)c2ccccn2)C1 [Example 306, trans-3-[(S)-hydroxy(pyridin-2-yl)methyl]-3-[2-(trifluoromethyl)pyridin-4-yl]cyclobutanol] | 50 to 500 nM | >85% | >85%
22 | CC1(O)CC(c2ccnc(C(F)(F)F)c2)(C(O)c2ccccn2)C1 [Example 307, trans-3-[(S)-hydroxy(pyridin-2-yl)methyl]-1-methyl-3-[2-(trifluoromethyl)-pyridin-4-yl]cyclobutanol] | 5100 to 20000 nM | >85% | 73%
